Source: patent US9771342B2, “Monascuspurpurones, preparation process thereof, and uses of the monascuspurpurones” (Food Industry Research and Development Institute, priority 2010, dated 2017)

Assays:
3T3-L1 preadipocytes = assay: Enhancement of 3T3-L1 preadipocyte differentiation in insulin differentiation model (AdipoRed staining / triglyceride); format: cell-based; details: for Oil Red assay (% of control): insulin model, 3T3-L1 differentiation
Description: Preadipocytes were prepared according to the method described by Wald et al., (2007, “The small molecule harmine is an antidiabetic cell-type-specific regulator of PPARγ expression.” Cell Metabolism, 5(5): 357-370). Preadipocytes were cultured in DMEM (Dulbecco's Modified Eagle's Medium-high glucose, Sigma D-7777) containing 10% of fetal bovine serum (FBS) and incubated at 37° C. in a 5% CO2 incubator.
Before the differentiation induction experiments, the cells were plated into either 96- or 24-well plates (the concentration of cells in each well was about 2×10^4/cm^2). The plates were incubated for about two days to allow the cells to proliferate to confluence, and then maintained for another two days. The medium was changed to different differentiation media according to different experiments. The day of switching to differentiation medium was designated as day zero.
The differentiation medium used in insulin differentiation model was DMEM with 10% FBS comprising 10 μg/ml of insulin. Differentiation media with various concentrations of Compound 1 were added to each well of the 24- or 96-well 3T3-L1 preadipocyte plates (the final concentration of Compound 1 in each well was 2 μg/ml, 5 μg/ml, 10 μg/ml, and 20 μg/ml, respectively). The control group was the culture with only the differentiation medium and no sample. The cultures were incubated at 37° C. in a 5% CO2 incubator for seven days (during the period, the differentiation medium and sample were replaced with fresh ones twice), and then the medium was replaced by DMEM with 10% FBS. The cultures were maintained until day 9 or day 10 . The cells of the experiment groups and control groups at day 9 or day 10 were stained with AdipoRed and the concentrations of triglyceride were analyzed.
The 96-well plates were rinsed with PBS, and 200 μl of PBS and 5 μl of AdipoRed reagent (Lonze Walkersville, Inc., Walkersville, Md., USA, Catalog No. PT-7009) were added to each well. After 10 to 15 minutes, the plates were read with a spectrofluorometer (Infinite M200) set at an excitation wavelength of 485 nm and an emission wavelength of 572 nm. The fluorescent data of the experiment group was divided by the fluorescent data of the control group to obtain a percentage of induction activity.
The 24-well plates were rinsed with PBS, and the cells were washed off with 0.1 ml of 1% Triton X 100 per well. The cells were then frozen, thawed and centrifuged (10,000 rpm/5 min) and the supernatant was collected. An aliquot of 0.05 ml of the supernatant was analyzed using Triglycerol assay Kit (Audit Diagnostics, Ltd.).
The protein amounts were analyzed using Bio-Rad Dc Protein assay reagent (Bio-Rad). […]

PPARγ-LBD = molecular target: T1, PPARγ-LBD (Homo sapiens, UniProt P37231); assay: LanthaScreen TR-FRET PPAR Competitive Binding Assay; details: tested at 10-160 μg/ml, 2 hours at room temperature
T1 construct: 10 μL 4× PPARγ-LBD/Tb-anti-GST Ab; purchased Invitrogen PV4894
T1 sequence (P37231 238-503 limits assumed): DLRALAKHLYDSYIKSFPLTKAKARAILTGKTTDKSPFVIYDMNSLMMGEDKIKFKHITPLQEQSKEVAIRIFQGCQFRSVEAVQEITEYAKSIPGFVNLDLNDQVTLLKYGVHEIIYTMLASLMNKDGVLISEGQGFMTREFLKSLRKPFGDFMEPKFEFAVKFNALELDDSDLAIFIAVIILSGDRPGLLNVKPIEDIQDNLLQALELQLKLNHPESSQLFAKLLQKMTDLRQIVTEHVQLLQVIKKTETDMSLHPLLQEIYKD
Description: 10, 20, 40, 80 and 160 μg/ml of Compound 1 were tested in the ligand binding assay conducted following the manuals described in LanthaScreen TR-FRET PPAR Competitive Binding Assay kits (Invitrogen New York, N.Y. Catalog no. PV4894). In a 96-well microtiter plate, the reagents were pipetted into each well in the following order: 20 μL 2× Test Compound, 10 μL 4× Fluormone™ Pan-PPAR Green and 10 μL 4× PPARγ-LBD/Tb-anti-GST Ab in a total assay volume of 40 μl/well. The reagents were gently mixed by placing the microtiter plate on an orbital plate shaker for 30 seconds. The samples were incubated at room temperature (20-25° C.) for 2 hours in the dark allowing the binding of the samples to reach equilibrium. The fluorescent emission signal of each well was measured at 495 nm and 520 nm with an Absorbance Microplate Reader (Spectra Max M5 from Molecular Devices LLC).

3T3-L1 cells = assay: Quantitative real-time PCR of adipocyte differentiation related gene expression; format: cell-based
Description: The upstream genes that regulate adipocyte differentiation have been previously reported (F. M. Gregoire, C. M. Smas and H. S. Sul, Understanding adipocyte differentiation. Physiological Reviews, 783 (1998), pp. 783-809.) Among them, aP2, LPL, PPARγ, adiponectin, GLUT4, GLUT1, and C/EBPα were assayed to monitor the regulation of 3T3-L1 preadipocyte differentiation. The housekeeping genes of β-actin and Glyceraldehyde 3-phosphate dehydrogenase (GADPH) were used as control. “do” represents the conditions of the 3T3-L1 preadipocytes before adding inducing agents. In the “NC” groups, the 3T3-L1 preadipocytes were not treated with any inducing agent. Both “do” and “NC” groups were the control groups. In the groups of “insulin,” “E,” and “troglitazone,” the 3T3-L1 preadipocytes were induced with insulin, Compound 1 and insulin, and troglitazone, respectively.
After culturing the 3T3-L1 cells for 9 days, insulin, Compound 1 and insulin, and troglitazone were added to the medium. The cells were further cultivated, and the samples were collected on day 4 (early adipocyte differentiation stage), day 7 (middle stage) and day 9 (late stage) for the following assays.
Total RNA was extracted from 3T3-L1 cells using TRIZOL reagent according to the manufacturer's instructions (GIBCO 15596-026; Molecular Research Center, Inc). 4 μg of total RNA from each sample were reverse-transcribed to cDNA according to the protocol of the reverse transcript system [RevertAid H Minus First Strand cDNA Synthesis Kit (Fementas K1632)] with the oligo (dT)18 primers. A TaqMan One-Step RT-PCR Master Mix reagent kit and inventory primer and probes (Applied Biosystems, Foster, Calif.) were applied for the quantitative real-time PCR followed by a TaqMan gene expression assay. The sequences aP2 (Mm00445878_ml), LPL (Mm00434770_ml), PPARγ (Mm01184322_ml), adiponectin (Mm00456425_ml), GLUT4 (Mm01245502_ml), GLUT1 (Mm01192270_ml), C/EBPα (Mm01265914_sl), C/EBPδ (Mm00786711_sl), β-actin (Mm01205647_gl) and GADPH (Mm99999915_gl) were amplified in the PCR. Levels of mRNAs for housekeeping genes (β-actin and GADPH) were also measured by the real-time PCR. After cDNA synthesis, the quantitative real-time PCR was performed with the ABI Prism 7300 instrument (Applied Biosystems, Foster City, Calif., USA) according to the manufacturer's protocol. The PCR conditions were 1 cycle of 50 ° C. for 2 min, then 95 ° C. for 10 min, followed by 40 cycles of 95 ° C. for 15 seconds and 60 ° C. for 1 min. The quantification was performed in duplicate and the experiments were repeated independently three times.

[1] = day 4 (early stage), Compound 1 and insulin vs insulin group
[2] = day 7 (middle stage), Compound 1 and insulin vs insulin group
[3] = day 9 (late stage), Compound 1 and insulin vs insulin group
[4] = early, middle and late adipocyte differentiation stages

For “rel-(1S,7aR,3aR)-1-Hexanoyl-5,13-dimethyl-6-(2-oxopentyl)-7a,7-dihydrobenzofuran-2,4-dione [Compound 1]”, the “Oil Red assay (% of control)” value (3T3-L1 preadipocytes; 2 μg/ml) was 127 ± 4 % of control, the “Oil Red assay (% of control)” value (3T3-L1 preadipocytes; 5 μg/ml) was 140 ± 5 % of control and the “Oil Red assay (% of control)” value (3T3-L1 preadipocytes; 10 μg/ml) was 148 ± 8 % of control. For the same substance, the “triglyceride droplets in differentiated adipocytes, inverted microscope” value (3T3-L1 preadipocytes; 2, 5 and 10 μg/ml vs control culture (insulin only), FIG. 4) was “more triglyceride droplets than the control culture”, the “PPARγ binding IC50” value (PPARγ-LBD) was 68 ± 21 µg/mL and the “expression of C/EBPα, increase compared to insulin group” value (3T3-L1 cells; [1]) was “about 50%”. For the same substance, the “expression of GluT1 relative to insulin group” value (3T3-L1 cells; [1]) was 0.6 fold, the “expression of PPARγ, increase compared to insulin group” value (3T3-L1 cells; [1]) was “about 50%” and the “expression of adiponectin, increase compared to insulin group” value (3T3-L1 cells; [1]) was “about 50%”. For the same substance, the “expression of GluT1 relative to insulin group” value (3T3-L1 cells; [2]) was 0.3 fold, the “expression of LPL relative to insulin group” value (3T3-L1 cells; [2]) was 0.3 fold and the “expression of PPARγ relative to insulin group” value (3T3-L1 cells; [2]) was 1.8 fold. The “expression of aP2 relative to insulin group” value (3T3-L1 cells; [2]) was 0.3 fold, the “expression of GluT1 relative to insulin control” value (3T3-L1 cells; day 9 (late stage), Compound 1 and insulin vs insulin control) was 0.6 fold and the “expression of C/EBPα relative to insulin group” value (3T3-L1 cells; [3]) was 1.59 folds. The “expression of PPARγ relative to insulin group” value (3T3-L1 cells; [3]) was 1.35 folds, the “expression of adiponectin relative to insulin group” value (3T3-L1 cells; [3]) was 1.49 folds and the “effect on the expression of aP2, LPL, adiponectin, GLUT4, and GLUT1” value (3T3-L1 cells; [4]) was “little effect”. For the same substance, the “effect on the expressions of PPARγ and C/EBPα” value (3T3-L1 cells; [4]) was “can stimulate the expressions of PPARγ and C/EBPα”.
